Data from patent US20080076721A1, “Use of branched chain fatty acid amino acid salts and compositions thereof” (priority 2006, published 2008).
“Also recorded” adds a separate entry of the source.

Test: L-arginine phytanate method of use: 4-week oral post-workout supplementation in an experienced weight trained person (body weight, bench press)
Type: in vivo, human
Description: In this example a experienced weight trained person orally consumes 3 grams of L-arginine phytanate post workout for 4 weeks as a beverage, consumes no supplements for 4 weeks, then orally consumes phytanic acid in the same manner post workout for 4 weeks. The L-arginine phytanate is incorporated into free powder mixture of flavoring agents and palatinose, which is then combined with water. Once in the plasma L-arginine phytanate then exerts a synergistic lean tissue promoting effect due to the anabolic actions of phytanic acid and L-arginine. Phytanic acid activates PPAR alpha, beta/delta, gamma, and increases nitric oxide synthase thus increasing nitric oxide production. This wide range of PPAR receptor activation and nitric oxide release combined with a high protein diet and anaerobic training program, enhances muscle building and fat loss. The L-arginine synergistically promotes protein synthesis and nitric oxide release. These physiological functions lead to increases in lean body mass, strength, endurance, recovery and loss of body fat. The test subject reported a weight gain of 5 lbs., a 25-pound increase in 1 repetition maximum (RM) bench press, and 6-repetition increase in initial 70 percent maximum bench press at the end of the L-arginine phytanate 4-week period as compared to baseline values. These increases contribute to the regulation of athletic function and thus lead to enhanced physical performance. […] During the final phase of the experiment, the test subject reported no increases in body weight, 1 repetition maximum bench press, or 70 percent maximum bench press.

[1] = experienced weight trained person, 3 grams orally post workout for 4 weeks, end of 4-week period compared to baseline
[2] = same subject, final phase after 4-week washout, orally in the same manner post workout for 4 weeks, result in words

Row | Compound | weight gain (experienced weight trained person, 3 grams orally post workout for 4 weeks as a beverage, end of 4-week period compared to baseline) [lbs.] | increase in 1 repetition maximum (RM) bench press [1] [pound] | increase in initial 70 percent maximum bench press [1] [repetition] | 1 repetition maximum bench press change [2] | 70 percent maximum bench press change [2] | body weight change [2]
1 | CC(C)CCCC(C)CCCC(C)CCCC(C)CC(=O)O.N=C(N)NCCC[C@H](N)C(=O)O [L-arginine phytanate, 3,7,11,15-tetramethylhexadecanoic L-arginine salt] | 5 | 25 | 6 |  |  | 
2 | CC(C)CCCC(C)CCCC(C)CCCC(C)CC(=O)O (stereo not drawn) [phytanic acid, 3,7,11,15-tetramethylhexadecanoic acid] |  |  |  | no increases | no increases | no increases; also recorded: decrease in body weight
